Data on 4 molecules can be found in patent US20260001928A1 (CORTERIA PHARMACEUTICALS, priority 2022, published 2026).

*1 amine or outer side, *2 acyl side, *3 side chain or, on linkers, in order; H or OH if unused. Where a SMILES comes first, the peptide text is derived from it. Side-chain parts run from the residue outwards. [ ]: non-standard residue; d: D form. The star is where a group is joined. C18 diacid = O=C(O)CCCCCCCCCCCCCCCCC(=O)*; C16 diacid = O=C(O)CCCCCCCCCCCCCCC(=O)*; γGlu = O=C(O)[C@H](CCC(=O)[*:2])N[*:1]; Decanoyl = CCCCCCCCCC(=O)*; Nva = CCC[C@H](N)C(=O)O; Pentanoyl = CCCCC(=O)*; Aib = CC(C)(N)C(=O)O

In one experiment the test system is Sprague Dawley rats. Kind of experiment: Effect on systolic blood pressure, telemetry in Sprague Dawley rats. As to conditions: 0.1 mg/kg SC; for Systolic blood pressure (Mean) % change from baseline, 8 h / Systolic blood pressure (Mean) % change from baseline, 12 h / Systolic blood pressure (Mean) % change from baseline, 24 h: n=2; for Duration of action: last time point with an effect on BP still observed. In kind it is in vivo, rat. As for the experimental part:
The effect of the compounds on systolic blood pressure was determined in telemetry studies in Sprague Dawley rats at a dosage of 0.1 mg/kg SC.
The rats were previously implanted with a telemetry device (DSI, Saint-Paul, USA, HD-S10, HD-S11 or HD S21) and allowed to recover for a minimum period of 2 weeks before treatment with vehicle or the different peptides. Blood pressure (BP) was recorded through a catheter inserted into the abdominal aorta. The device body was placed in the abdomen. The animals were allowed to recover from surgery for at least 10 days before the first administration of test drug or vehicle.
The chronically instrumented rats of the telemetry studies were individually housed immediately after surgery and then housed in pairs with a non-instrumented companion after recovery.
Systolic blood pressure was recorded for one hour before treatment (basal period). Thereafter, the subcutaneous administration of the test compound or its vehicle was performed, under continuous recording of the signal up to 48 hours, analysed and expressed as % change from baseline.
Representative data are presented in Table 13 below, in which “Duration of action” indicates the last time point for which an effect on BP was still observed (n=2 animals/peptide)

For the next experiment, the target named is T1, CFR1R receptor (Homo sapiens, UniProt P34998).
T1 construct: host or cells: CHO-K1 (clone 2)
T1 sequence (P34998 24-415): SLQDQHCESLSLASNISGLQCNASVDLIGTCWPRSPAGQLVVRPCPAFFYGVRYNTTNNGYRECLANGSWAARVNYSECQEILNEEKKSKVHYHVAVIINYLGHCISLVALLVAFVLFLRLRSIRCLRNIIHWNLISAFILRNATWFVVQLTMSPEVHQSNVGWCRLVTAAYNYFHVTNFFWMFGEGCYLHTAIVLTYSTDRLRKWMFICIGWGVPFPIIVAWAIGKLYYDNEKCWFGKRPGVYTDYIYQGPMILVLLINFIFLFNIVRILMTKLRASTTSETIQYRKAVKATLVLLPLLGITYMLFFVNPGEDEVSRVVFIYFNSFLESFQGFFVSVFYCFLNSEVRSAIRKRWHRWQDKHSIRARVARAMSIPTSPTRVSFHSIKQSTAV
Kind of experiment: Activity at anti-target CFR1R receptor, cAMP assay in CRF1R-overexpression CHO-K1 cells. In kind it is cell-based. As to conditions: 100% = Sauvagine at 100 nM; for EC50: cAMP. Put shortly:
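Uses frozen stocks of CHO-K1 clone 2 cells overexpressing human CRF1R, plated at 4000 cells/well final, with cAMP measured by the same protocol as the TeloHAEC line. Full-activation control: 100 nM Sauvagine.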

In a further experiment the target is T2, human CRF2a receptor (Homo sapiens, UniProt Q13324).
T2 construct: expressed in transfected cells; host or cells: TeloHEAC cells
T2 sequence (Q13324 1-411): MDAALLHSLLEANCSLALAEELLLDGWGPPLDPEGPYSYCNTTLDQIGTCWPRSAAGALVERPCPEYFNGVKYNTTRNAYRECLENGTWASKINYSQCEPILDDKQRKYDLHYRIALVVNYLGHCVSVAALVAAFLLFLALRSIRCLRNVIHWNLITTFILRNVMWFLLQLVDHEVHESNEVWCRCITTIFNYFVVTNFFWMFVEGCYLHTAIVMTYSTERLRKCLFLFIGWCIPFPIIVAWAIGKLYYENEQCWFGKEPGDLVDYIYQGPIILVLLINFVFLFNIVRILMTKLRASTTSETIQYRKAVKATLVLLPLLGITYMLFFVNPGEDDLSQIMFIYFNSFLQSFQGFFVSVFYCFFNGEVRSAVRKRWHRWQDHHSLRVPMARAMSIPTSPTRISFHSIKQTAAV
Kind of experiment: Activity at human CRF2a receptor, cAMP functional assay in TeloHEAC cells. Format: cell-based. Conditions: TeloHEAC cells stably expressing human CRF2a receptor, relative to urocortin 2 (100 nM = 100%). Put shortly: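 TeloHEAC cells stably expressing human CRF2a (10000 cells/well, suspended in HBSS/20 mM HEPES with 2 mM IBMX) were exposed to compounds for 30 min at 37 °C. cAMP was read as the 665/620 nm fluorescence ratio after 1 h at room temperature. EC50 was derived relative to 100 nM urocortin 2, set as 100%.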

In the case of `CC[C@H](C)[C@H](NC(C)=O)C(=O)N[C@H](C(=O)N[C@@H](CC(C)C)C(=O)N[C@@H](CO)C(=O)N[C@@H](CC(C)C)C(=O)N[C@@H](CC(=O)O)C(=O)N[C@@H](C(=O)N1CCC[C@H]1C(=O)N[C@H](C(=O)N[C@@H](CCCCN)C(=O)N[C@@H](CC(C)C)C(=O)N[C@@H](CCCCNC(=O)CC[C@H](NC(=O)CCCCCCCCCCCCCCC(=O)O)C(=O)O)C(=O)N[C@@H](CCCCN)C(=O)N[C@H](C(=O)N[C@@H](CC(C)C)C(=O)N[C@@H](CC(C)C)C(=O)N[C@@H](CCC(=O)O)C(=O)N[C@@H](CCC(N)=O)C(=O)N[C@@H](CCC(=O)O)C(=O)N[C@@H](CCCCN)C(=O)N[C@@H](CCC(N)=O)C(=O)N[C@@H](CCCCN)C(=O)N[C@@H](CCCCN)C(=O)N[C@@H](CCC(N)=O)C(=O)N[C@@H](CCCNC(=N)N)C(=O)N[C@@H](CCC(=O)O)C(=O)N[C@@H](CCC(N)=O)C(=O)N[C@@H](C)C(=O)N[C@@H](CCC(=O)O)C(=O)N[C@H](C(=O)N[C@@H](CC(N)=O)C(=O)N[C@@H](CCC(=O)O)C(=O)N[C@@H](CCC(N)=O)C(=O)N[C@H](C(=O)N[C@@H](CC(C)C)C(=O)N[C@@H](C)C(=O)N[C@@H](CCC(N)=O)C(=O)N[C@H](C(N)=O)C(C)C)[C@@H](C)CC)[C@@H](C)O)[C@@H](C)CC)[C@@H](C)CC)C(C)C)C(C)C` [SEQ ID No. 56, reference compound] (Ac-IVLSLD[dV]PIKLK([γGlu-C16 diacid])KILLEQEKQKKQREQAETNEQILAQV-NH2), in the experiment on Sprague Dawley rats, the “Systolic blood pressure (Mean) % change from baseline, 8 h” value was −24%; the “Systolic blood pressure (Mean) % change from baseline, 12 h” value is given as −11%; the “Systolic blood pressure (Mean) % change from baseline, 24 h” value turned out to be 2%; the Duration of action amounted to 18 h. For the same molecule, the “Emax (% I)” value at CFR1R receptor (listed as 10) was determined as 26 % I.

`CCC[C@H](NC(=O)[C@H](CC(N)=O)NC(=O)[C@@H](NC(=O)[C@H](CCC(=O)O)NC(=O)[C@H](C)NC(=O)[C@H](CCC(N)=O)NC(=O)[C@H](CCC(=O)O)NC(=O)[C@H](CCCNC(=N)N)NC(=O)[C@H](CCC(N)=O)NC(=O)[C@H](CCCCN)NC(=O)[C@H](CCCCN)NC(=O)[C@H](CCC(N)=O)NC(=O)[C@H](CCCCN)NC(=O)[C@H](CCC(=O)O)NC(=O)[C@H](CCC(N)=O)NC(=O)[C@H](CCC(=O)O)NC(=O)[C@H](CC(C)C)NC(=O)[C@H](CC(C)C)NC(=O)[C@@H](NC(=O)[C@H](CCCCN)NC(=O)[C@H](CCCCNC(=O)CC[C@H](NC(=O)CCCCCCCCCCCCCCC(=O)O)C(=O)O)NC(=O)[C@H](CC(C)C)NC(=O)[C@H](CCCCN)NC(=O)[C@@H](NC(=O)[C@@H]1CCCN1C(=O)[C@H](NC(=O)[C@H](CC(=O)O)NC(=O)[C@H](CC(C)C)NC(=O)[C@H](CO)NC(=O)[C@H](CC(C)C)NC(=O)[C@@H](NC(=O)[C@@H](NC(C)=O)[C@@H](C)CC)C(C)C)C(C)C)[C@@H](C)CC)[C@@H](C)CC)[C@@H](C)O)C(=O)N[C@@H](CCC(N)=O)C(=O)N[C@H](C(=O)N[C@@H](CC(C)C)C(=O)N[C@@H](C)C(=O)N[C@@H](CCC(N)=O)C(=O)N[C@H](C(N)=O)C(C)C)[C@@H](C)CC` [compound 52] (Ac-IVLSLD[dV]PIKLK([γGlu-C16 diacid])KILLEQEKQKKQREQAETN[Nva]QILAQV-NH2) came in with an EC50 on human CRF2a receptor of 170 pM. In the experiment on Sprague Dawley rats, the “Systolic blood pressure (Mean) % change from baseline, 8 h” value was −28%; the “Systolic blood pressure (Mean) % change from baseline, 12 h” value was −17%; the “Systolic blood pressure (Mean) % change from baseline, 24 h” value is 4%; the Duration of action is recorded as 23 h. For the same molecule, on CFR1R receptor, the “Emax (% I)” value worked out at 7 % I and the EC50 is greater than 250000 pM.

The molecule `CCCCCCCCCC(=O)N[C@H](C(=O)N[C@@H](CC(C)C)C(=O)N[C@@H](CO)C(=O)N[C@@H](CC(C)C)C(=O)N[C@@H](CC(=O)O)C(=O)N[C@@H](C(=O)N1CCC[C@H]1C(=O)N[C@H](C(=O)N[C@@H](CCCCN)C(=O)N[C@@H](CC(C)C)C(=O)N[C@@H](CCCCNC(=O)CC[C@H](NC(=O)CCCCCCCCCCCCCCC(=O)O)C(=O)O)C(=O)N[C@@H](CCCCN)C(=O)N[C@H](C(=O)N[C@@H](CC(C)C)C(=O)N[C@@H](CC(C)C)C(=O)N[C@@H](CCC(=O)O)C(=O)N[C@@H](CCC(N)=O)C(=O)N[C@@H](CCC(=O)O)C(=O)N[C@@H](CCCCN)C(=O)N[C@@H](CCC(N)=O)C(=O)N[C@@H](CCCCN)C(=O)N[C@@H](CCCCN)C(=O)N[C@@H](CCC(N)=O)C(=O)N[C@@H](CCCNC(=N)N)C(=O)N[C@@H](CCC(=O)O)C(=O)N[C@@H](CCC(N)=O)C(=O)N[C@@H](C)C(=O)N[C@@H](CCC(=O)O)C(=O)N[C@H](C(=O)N[C@@H](CC(N)=O)C(=O)NC(C)(C)C(=O)N[C@@H](CCC(N)=O)C(=O)N[C@H](C(=O)N[C@@H](CC(C)C)C(=O)N[C@@H](C)C(=O)N[C@@H](CCC(N)=O)C(=O)N[C@H](C(N)=O)C(C)C)[C@@H](C)CC)[C@@H](C)O)[C@@H](C)CC)[C@@H](C)CC)C(C)C)C(C)C` [compound 158] (Decanoyl-VLSLD[dV]PIKLK([γGlu-C16 diacid])KILLEQEKQKKQREQAETN[Aib]QILAQV-NH2) came in with an EC50 on human CRF2a receptor of 40 pM. In addition, in the experiment on Sprague Dawley rats, the “Systolic blood pressure (Mean) % change from baseline, 8 h” value is recorded as −11%; the “Systolic blood pressure (Mean) % change from baseline, 12 h” value is given as −7%; the “Systolic blood pressure (Mean) % change from baseline, 24 h” value was 3%; the Duration of action is given as 23 h. For the same molecule, the “Emax (% I)” value at CFR1R receptor turned out to be 54 % I.

Turning to `CCCCC(=O)N[C@H](C(=O)N[C@@H](CC(C)C)C(=O)N[C@@H](CO)C(=O)N[C@@H](CC(C)C)C(=O)N[C@@H](CC(=O)O)C(=O)N[C@@H](C(=O)N1CCC[C@H]1C(=O)N[C@H](C(=O)N[C@@H](CCCCN)C(=O)N[C@@H](CC(C)C)C(=O)N[C@@H](CCCCNC(=O)CC[C@H](NC(=O)CCCCCCCCCCCCCCCCC(=O)O)C(=O)O)C(=O)N[C@@H](CCCCN)C(=O)N[C@H](C(=O)N[C@@H](CC(C)C)C(=O)N[C@@H](CC(C)C)C(=O)N[C@@H](CCC(=O)O)C(=O)N[C@@H](CCC(N)=O)C(=O)N[C@@H](CCC(=O)O)C(=O)N[C@@H](CCCCN)C(=O)N[C@@H](CCC(N)=O)C(=O)N[C@@H](CCCCN)C(=O)NC(C)(C)C(=O)N[C@@H](CCC(N)=O)C(=O)N[C@@H](CCCNC(=N)N)C(=O)N[C@@H](CCC(=O)O)C(=O)N[C@@H](CCC(N)=O)C(=O)N[C@@H](C)C(=O)N[C@@H](CCC(=O)O)C(=O)N[C@H](C(=O)N[C@@H](CC(N)=O)C(=O)NC(C)(C)C(=O)N[C@@H](CCC(N)=O)C(=O)N[C@H](C(=O)N[C@@H](CC(C)C)C(=O)N[C@@H](C)C(=O)N[C@@H](CCC(N)=O)C(=O)N[C@H](C(N)=O)C(C)C)[C@@H](C)CC)[C@@H](C)O)[C@@H](C)CC)[C@@H](C)CC)C(C)C)C(C)C` [compound 194] (Pentanoyl-VLSLD[dV]PIKLK([γGlu-C18 diacid])KILLEQEKQK[Aib]QREQAETN[Aib]QILAQV-NH2), the midpoint of the response at human CRF2a receptor, the EC50, lay at 440 pM. Moreover, in the experiment with Sprague Dawley rats, the “Systolic blood pressure (Mean) % change from baseline, 8 h” value is listed as −13%; the “Systolic blood pressure (Mean) % change from baseline, 12 h” value was −3%; the “Systolic blood pressure (Mean) % change from baseline, 24 h” value came to 18%; the Duration of action came out at 19 h. On CFR1R receptor, the “Emax (% I)” value amounted to 10 % I and the EC50 was greater than 250000 pM.
